According to paper PMC3522636, “4F Decreases IRF5 Expression and Activation in Hearts of Tight Skin Mice” (PLoS ONE, 2012):
Entries after “also recorded” stand apart in the source; their conditions may differ.

What was measured:
IRF5 [1] = assay: Western blot, myocardial IRF5 expression; type: in vivo, mouse; conditions: 4F 1 mg/kg/d, sc
Description: All experimental procedures and protocols involving mice were reviewed and approved by the Institutional Animal Care and Use Committee (IACUC) of the Medical College of Wisconsin (AUA#512). They also conformed to the rules in the Guiding Principles in the Care and Use of Animals published by the American Physiologic Society and the Guide for the Care and Use of Laboratory Animals published by OLAW. Male Tsk^−/+ and C57Bl/6J mice (6–8 weeks of age) were purchased from Jackson Laboratories (Bar Harbor, ME). Three groups of mice were studied; C57Bl/6J, Tsk^−/+, and Tsk^−/+ mice treated with 4F (1 mg/kg/d, sc) as published previously.
Hearts harvested from C57Bl/6J, Tsk^−/+ and 4F-treated Tsk ^−/+ mice were snap-frozen and stored at −80°C for subsequent analysis. Frozen hearts were pulverized in a stainless steel mortar and pestle bathed in liquid nitrogen. The frozen powder was dissolved and homogenized in lysis buffer [MOPS pH 7.0, 20 mM; EGTA 2 mM; EDTA 5mM; NaF 30 mM; Protease Inhibitor Cocktail (Complete Mini Roche, Roche, Madison WI); Phosphatase Inhibitor Cocktail (Sigma P5726)]. Lysate proteins were quantified using BCA (bicinchoninic acid) reagent (Pierce, Rockford, IL). […] Band densities were analyzed using Image J software (NIH, Bethesda, MD).

IRF5 [2] = target: T1, IRF5 (Homo sapiens, UniProt Q13568); assay: Biolayer interferometry, 4F binding to B-IRF5; conditions: B-IRF5 on SA biosensors, Octet Red 96
T1 construct: purchased GenScript USA Inc
T1 sequence (Q13568 1-498): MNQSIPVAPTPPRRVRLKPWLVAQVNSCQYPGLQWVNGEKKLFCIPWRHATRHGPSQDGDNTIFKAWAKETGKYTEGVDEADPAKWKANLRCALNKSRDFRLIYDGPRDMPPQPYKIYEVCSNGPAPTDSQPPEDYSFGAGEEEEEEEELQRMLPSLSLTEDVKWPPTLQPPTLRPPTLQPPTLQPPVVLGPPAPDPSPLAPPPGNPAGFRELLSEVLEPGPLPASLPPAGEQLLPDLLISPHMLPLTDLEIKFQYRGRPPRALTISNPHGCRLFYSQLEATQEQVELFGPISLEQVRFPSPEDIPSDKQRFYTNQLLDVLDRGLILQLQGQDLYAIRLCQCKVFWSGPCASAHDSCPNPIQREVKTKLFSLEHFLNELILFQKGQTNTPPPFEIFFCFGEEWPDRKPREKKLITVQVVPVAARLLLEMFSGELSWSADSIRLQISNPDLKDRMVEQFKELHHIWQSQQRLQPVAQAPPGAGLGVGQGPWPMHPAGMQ
Method: Biolayer Interferometry (BLI): Protein-protein interactions were determined by BLI using an Octet Red 96™ interferometer (ForteBio, Inc, Menlo Park, CA). IRF5 was purchased (GenScript USA Inc) and labeled with biotin (cat no. 21329, Thermo Fisher Scientific, Rockford, IL) at a ratio of 1∶1, which is optimal for binding and packaging target proteins onto SA biosensors (MR18-0009, ForteBio) for studying protein-protein interactions. Biotin-labeled IRF5 (B-IRF5) was loaded onto SA-biosensors in PBS for 15 minutes to ensure saturation. The B-IRF5-loaded SA biosensors were incubated in PBS containing 4F (20 µg/ml) for 10 minutes and association measured by following increases in wavelength interference. Next the loaded biosensors were incubated in PBS alone for 10 minutes to measure dissociation of 4F from B-IRF5 by following decreases in wavelength interference.

IRF5 [3] = target: T1, IRF5; assay: B-4F pulldown assay from EC cytosolic fractions spiked with recombinant IRF5; type: binding; conditions: 3 hours at 4°C, SA agarose beads overnight at 4°C; immunoblot
Method: B-4F Pulldown Assays: To determine whether 4F interacts with IRF5 in the presence of cystosol proteins, we performed 4F pulldown assays on EC cytosolic fractions spiked with recombinant IRF5. Briefly, cytosolic EC fractions were precleared with SA agarose beads (Cat#15942-050, Invitrogen) for 30 minutes at 4°C. IRF5 interactions were enhanced by adding recombinant IRF5 (2% wt/vol, Genscript USA Inc.) to the endothelial cytosolic fractions. 4F and B-4F were added to the cytosolic fractions and incubated for 3 hours at 4°C. SA agarose beads were added and the samples mixed end-over-end overnight at 4°C. The following day the SA agarose beads were isolated by centrifugation. The proteins associated with B-4F were released from the beads with Laemmli buffer and separated by SDS-PAGE (4–15%) as above. IRF5 levels in the pulldown samples were determined by autoradiography of immunoblots as above.

Substance: Ac-DWFKAFYDKVAEKFKEAF-NH2 [4F]
- reduction of IRF5 in Tsk−/+ hearts (band density) (IRF5 [1]; 6 weeks, vs untreated Tsk−/+ hearts): 78%
- myocardial IRF5 expression (in words) (IRF5 [1]; 6–8 weeks, Tsk−/+ hearts): decrease IRF5 in Tsk^−/+ hearts; also recorded: markedly decreased IRF5 expression in Tsk^−/+ hearts; also recorded: markedly decrease IRF5 expression in Tsk^−/+ myocardium; also recorded: decreases myocardial expression of IRF5; also recorded: decreases IRF5 levels and activation in the Tsk^−/+ mouse hearts
- association with B-IRF5 (IRF5 [2]; 4F 20 µg/ml in PBS, 10 minutes): rapidly associated
- association versus dissociation with IRF5 (IRF5 [2]; 4F 20 µg/ml): favoring association over dissociation; also recorded: favors association over dissociation; also recorded: rate of 4F association with IRF5 is faster than their rate of dissociation
- dissociation from B-IRF5 (IRF5 [2]; PBS alone, 10 minutes): slow
- association with IRF5 in presence of EC cytosolic proteins (in words) (IRF5 [3]): strong enough to pull down IRF5 from a mixture of endothelial cell cytosolic proteins; also recorded: this interaction exists even in the presence of EC cytosolic proteins
